The values below are quoted from earlier work in US6503506B1, “Nutrient therapy for immuno-compromised patients” (Millenium Biotechnologies, Inc., priority 2001, dated 2003).

One series relates to mitochondrial DNA. Particulars: patients on long-term therapy.

As for superoxide dismutase [SOD], the “levels of the virus core protein” value in the series with HIV (indicator of virus presence in the cells) is listed as “reduced the levels of the virus core protein”. Besides, the “spread of HIV through infected cells” value with HIV (infected white blood cells from patients with HIV) is given as “slowed down the spread of HIV through the infected cells”.

Consider `COC1=C(OC)C(=O)C(C/C=C(\C)CC/C=C(\C)CC/C=C(\C)CC/C=C(\C)CC/C=C(\C)CC/C=C(\C)CC/C=C(\C)CC/C=C(\C)CC/C=C(\C)CCC=C(C)C)=C(C)C1=O` [COQ10, Coenzyme Q10], for which the “T4/T8 ratios of lymphocytes” value (HIV patients, oral administration) is given as “positive increase in T4/T8 rations”. Moreover, for the setting “human studies, administered orally”, the “IgG and T4-lymphocytes” value was “increases IgG and T4-lymphocytes”.

For the molecule `Cc1cn([C@H]2C[C@H](N=[N+]=[N-])[C@@H](CO)O2)c(=O)[nH]c1=O` [zidovudine (AZT), zidovudine], the “levels of mitochondrial DNA in muscle” value in the series on mitochondrial DNA is recorded as “depletes levels of mitochondrial DNA in muscle”.
